The test system of assay [1] is Tyrosine-protein kinase ABL1 (Homo sapiens), P00519 [Q252H]. The assay is described as follows: Inhibition of nonphosphorylated ABL1 Q252H mutant (unknown origin) at 1 uM by Ambit Kinomescan binding assay relative to control.
Assay [2] addresses T1, NUAK family SNF1-like kinase 1 (Homo sapiens) (UniProt O60285).
T1 sequence (whole entry): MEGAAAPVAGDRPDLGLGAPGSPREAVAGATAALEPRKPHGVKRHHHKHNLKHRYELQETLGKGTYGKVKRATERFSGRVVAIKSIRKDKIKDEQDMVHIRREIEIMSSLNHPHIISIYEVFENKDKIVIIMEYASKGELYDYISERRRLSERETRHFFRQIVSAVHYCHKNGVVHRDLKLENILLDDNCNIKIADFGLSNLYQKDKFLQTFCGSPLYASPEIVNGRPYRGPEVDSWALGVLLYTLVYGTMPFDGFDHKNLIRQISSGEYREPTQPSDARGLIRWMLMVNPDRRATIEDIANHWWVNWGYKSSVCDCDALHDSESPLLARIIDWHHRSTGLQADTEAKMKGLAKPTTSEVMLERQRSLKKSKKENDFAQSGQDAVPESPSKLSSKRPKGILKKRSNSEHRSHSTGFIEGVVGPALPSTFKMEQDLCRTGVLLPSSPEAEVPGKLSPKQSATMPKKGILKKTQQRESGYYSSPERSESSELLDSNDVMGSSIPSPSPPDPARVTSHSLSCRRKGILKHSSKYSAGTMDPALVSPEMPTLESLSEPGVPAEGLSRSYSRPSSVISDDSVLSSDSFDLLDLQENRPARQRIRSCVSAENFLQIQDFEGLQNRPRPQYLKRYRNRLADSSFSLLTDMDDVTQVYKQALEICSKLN
The assay is described as follows: Inhibition of ARK5 (unknown origin) at 1 uM by Ambit Kinomescan binding assay relative to control.

Assay [3] concerns the target Putative phosphatidylinositol 4-kinase alpha-like protein P2 (Homo sapiens) (UniProt A4QPH2). As to the kind of experiment: Inhibition of PI4KAP2 ATP labeling site in human A-375 cells at 0.5 uM by KiNativ Profiling analysis relative to control. The class given is cell-based.
Assay [4] deals with Serine/threonine-protein kinase DCLK3 (Homo sapiens) (UniProt Q9C098). As to the kind of experiment: Inhibition of DCAMKL3 (unknown origin) at 1 uM by Ambit Kinomescan binding assay relative to control; values are per cent of control.
Chain of Serine/threonine-protein kinase DCLK3 (Homo sapiens) (Q9C098 whole entry): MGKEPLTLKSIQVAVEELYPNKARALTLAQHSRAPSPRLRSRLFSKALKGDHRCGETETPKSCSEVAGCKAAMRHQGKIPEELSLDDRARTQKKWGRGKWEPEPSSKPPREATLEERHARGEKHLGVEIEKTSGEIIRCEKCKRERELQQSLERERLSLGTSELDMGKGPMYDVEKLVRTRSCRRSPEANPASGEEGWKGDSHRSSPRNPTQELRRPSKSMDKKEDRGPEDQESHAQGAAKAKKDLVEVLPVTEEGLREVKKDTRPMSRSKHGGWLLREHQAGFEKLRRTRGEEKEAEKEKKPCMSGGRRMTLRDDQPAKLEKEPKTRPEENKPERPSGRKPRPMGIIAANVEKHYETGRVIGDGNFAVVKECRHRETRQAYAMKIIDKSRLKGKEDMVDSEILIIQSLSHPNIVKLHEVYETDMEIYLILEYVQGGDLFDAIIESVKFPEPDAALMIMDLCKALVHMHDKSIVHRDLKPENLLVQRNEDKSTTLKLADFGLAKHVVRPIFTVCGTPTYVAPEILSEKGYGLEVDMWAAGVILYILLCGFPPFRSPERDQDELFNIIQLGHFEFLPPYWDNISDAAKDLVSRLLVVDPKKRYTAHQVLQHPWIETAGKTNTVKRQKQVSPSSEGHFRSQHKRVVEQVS
Assay [5] concerns Mast/stem cell growth factor receptor Kit (Homo sapiens), P10721 [V559D,V654A]. As to the kind of experiment: Inhibition of KIT V559D/V654A double mutant (unknown origin) at 10 uM by Ambit Kinomescan binding assay relative to control.
Chain of Mast/stem cell growth factor receptor Kit (Homo sapiens), P10721 [V559D,V654A] (P10721 whole entry V559D/V654A): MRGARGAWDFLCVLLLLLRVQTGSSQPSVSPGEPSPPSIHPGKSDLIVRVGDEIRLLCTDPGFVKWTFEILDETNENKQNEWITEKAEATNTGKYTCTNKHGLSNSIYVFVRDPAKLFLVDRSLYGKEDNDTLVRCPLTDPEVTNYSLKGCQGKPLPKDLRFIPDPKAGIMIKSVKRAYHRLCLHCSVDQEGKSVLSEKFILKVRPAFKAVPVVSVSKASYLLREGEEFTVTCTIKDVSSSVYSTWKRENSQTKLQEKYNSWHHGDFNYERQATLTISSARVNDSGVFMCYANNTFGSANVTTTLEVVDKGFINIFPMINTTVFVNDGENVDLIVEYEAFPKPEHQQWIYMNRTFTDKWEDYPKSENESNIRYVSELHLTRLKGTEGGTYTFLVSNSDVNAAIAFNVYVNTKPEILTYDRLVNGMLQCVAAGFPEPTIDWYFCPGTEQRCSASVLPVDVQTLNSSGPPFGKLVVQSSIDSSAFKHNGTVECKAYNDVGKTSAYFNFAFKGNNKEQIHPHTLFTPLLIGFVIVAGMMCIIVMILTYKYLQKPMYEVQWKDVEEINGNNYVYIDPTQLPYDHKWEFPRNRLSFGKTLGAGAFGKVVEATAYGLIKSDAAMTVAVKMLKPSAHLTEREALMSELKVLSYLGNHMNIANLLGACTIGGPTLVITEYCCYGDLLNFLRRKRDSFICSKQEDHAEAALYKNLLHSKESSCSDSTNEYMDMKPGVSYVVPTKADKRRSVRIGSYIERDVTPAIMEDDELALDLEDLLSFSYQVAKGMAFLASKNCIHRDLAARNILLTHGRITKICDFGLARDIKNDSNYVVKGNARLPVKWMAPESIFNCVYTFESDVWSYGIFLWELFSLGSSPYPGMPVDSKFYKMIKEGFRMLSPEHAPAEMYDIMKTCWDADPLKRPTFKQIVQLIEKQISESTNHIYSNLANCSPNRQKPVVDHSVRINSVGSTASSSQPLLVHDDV
Assay [6] addresses T2, Serine/threonine-protein kinase Nek1 (Homo sapiens) (UniProt Q96PY6).
T2 sequence (whole entry): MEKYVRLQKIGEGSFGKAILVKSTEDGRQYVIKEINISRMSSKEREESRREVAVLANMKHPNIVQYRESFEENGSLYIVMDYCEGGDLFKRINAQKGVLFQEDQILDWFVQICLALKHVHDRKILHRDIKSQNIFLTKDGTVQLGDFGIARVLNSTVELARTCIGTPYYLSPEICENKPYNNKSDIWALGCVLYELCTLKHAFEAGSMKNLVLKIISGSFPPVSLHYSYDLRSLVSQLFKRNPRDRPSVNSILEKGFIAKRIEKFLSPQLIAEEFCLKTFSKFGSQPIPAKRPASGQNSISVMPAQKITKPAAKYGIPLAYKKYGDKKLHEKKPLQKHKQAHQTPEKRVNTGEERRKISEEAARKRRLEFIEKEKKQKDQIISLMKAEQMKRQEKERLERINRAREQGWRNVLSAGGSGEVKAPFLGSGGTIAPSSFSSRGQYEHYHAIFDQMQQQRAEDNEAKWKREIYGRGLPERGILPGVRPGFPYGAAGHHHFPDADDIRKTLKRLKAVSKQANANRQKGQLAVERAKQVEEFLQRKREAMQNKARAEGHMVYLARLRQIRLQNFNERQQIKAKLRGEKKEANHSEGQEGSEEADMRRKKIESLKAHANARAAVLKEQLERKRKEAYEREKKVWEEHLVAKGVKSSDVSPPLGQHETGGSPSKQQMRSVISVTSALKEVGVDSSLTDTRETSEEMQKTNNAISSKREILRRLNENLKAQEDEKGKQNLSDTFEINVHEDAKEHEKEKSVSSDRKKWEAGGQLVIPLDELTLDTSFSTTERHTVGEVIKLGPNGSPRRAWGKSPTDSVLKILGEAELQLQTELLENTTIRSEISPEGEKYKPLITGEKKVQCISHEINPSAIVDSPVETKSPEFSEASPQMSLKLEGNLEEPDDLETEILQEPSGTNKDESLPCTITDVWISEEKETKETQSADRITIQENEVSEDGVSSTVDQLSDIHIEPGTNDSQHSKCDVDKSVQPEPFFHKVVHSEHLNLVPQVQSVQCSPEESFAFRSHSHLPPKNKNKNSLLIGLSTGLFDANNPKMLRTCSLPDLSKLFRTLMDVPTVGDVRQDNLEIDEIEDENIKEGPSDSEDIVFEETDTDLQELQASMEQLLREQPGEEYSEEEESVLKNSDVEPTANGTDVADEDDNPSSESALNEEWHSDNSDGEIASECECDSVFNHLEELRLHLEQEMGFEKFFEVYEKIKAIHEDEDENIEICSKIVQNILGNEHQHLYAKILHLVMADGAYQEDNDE
As to the kind of experiment: Inhibition of NEK1 Lys2 labeling site in human Huh-7 cell lysate at 1 uM by KiNativ Profiling analysis relative to control. The class given is subcellular.

The target of assay [7] is Ribosomal protein S6 kinase alpha-3 (Homo sapiens) (UniProt P51812). As to the kind of experiment: Inhibition of RSK2 domain1 ACT labeling site harbouring LTDFGLSKESIDHEKK in human Huh-7 cell lysate at 1 uM by KiNativ Profiling analysis relative to control. The class given is subcellular.
Chain of Ribosomal protein S6 kinase alpha-3 (Homo sapiens) (P51812 whole entry, the tested form may be a part): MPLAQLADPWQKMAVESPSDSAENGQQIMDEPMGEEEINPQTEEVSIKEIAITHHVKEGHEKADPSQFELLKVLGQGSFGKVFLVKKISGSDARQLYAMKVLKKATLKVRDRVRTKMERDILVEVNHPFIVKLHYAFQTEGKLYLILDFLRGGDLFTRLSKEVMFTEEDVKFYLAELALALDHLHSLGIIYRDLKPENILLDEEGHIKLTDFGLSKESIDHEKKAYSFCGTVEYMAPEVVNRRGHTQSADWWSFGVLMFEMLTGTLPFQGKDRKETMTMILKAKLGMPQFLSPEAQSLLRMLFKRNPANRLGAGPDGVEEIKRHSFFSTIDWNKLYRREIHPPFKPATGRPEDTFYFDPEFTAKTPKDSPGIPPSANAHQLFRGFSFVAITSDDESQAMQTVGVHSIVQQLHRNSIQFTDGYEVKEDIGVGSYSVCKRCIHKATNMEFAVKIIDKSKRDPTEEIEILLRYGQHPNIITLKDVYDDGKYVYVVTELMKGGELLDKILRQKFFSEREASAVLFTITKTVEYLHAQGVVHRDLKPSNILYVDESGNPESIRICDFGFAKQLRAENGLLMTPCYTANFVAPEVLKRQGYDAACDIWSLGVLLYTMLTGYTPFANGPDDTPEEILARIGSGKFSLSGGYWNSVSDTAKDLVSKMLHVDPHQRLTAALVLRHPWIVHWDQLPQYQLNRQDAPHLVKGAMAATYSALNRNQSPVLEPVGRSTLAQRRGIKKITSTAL
Assay [8] concerns the target T3, Interleukin-1 receptor-associated kinase 4 (Homo sapiens) (UniProt Q9NWZ3).
T3 sequence (whole entry): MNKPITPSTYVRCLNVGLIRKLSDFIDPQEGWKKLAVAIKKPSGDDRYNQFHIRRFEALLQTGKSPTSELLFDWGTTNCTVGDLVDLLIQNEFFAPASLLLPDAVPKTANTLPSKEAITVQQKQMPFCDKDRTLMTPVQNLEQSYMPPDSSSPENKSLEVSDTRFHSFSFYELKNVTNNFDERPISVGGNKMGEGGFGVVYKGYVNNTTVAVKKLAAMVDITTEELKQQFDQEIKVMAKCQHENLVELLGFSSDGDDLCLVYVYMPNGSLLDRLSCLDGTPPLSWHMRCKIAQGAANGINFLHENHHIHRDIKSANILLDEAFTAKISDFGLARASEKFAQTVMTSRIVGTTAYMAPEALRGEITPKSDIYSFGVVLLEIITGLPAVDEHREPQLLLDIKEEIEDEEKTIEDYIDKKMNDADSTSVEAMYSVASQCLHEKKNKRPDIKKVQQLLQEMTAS
The assay is described as follows: Inhibition of IRAK4 Lys2 labeling site in human Huh-7 cells at 1 uM by KiNativ Profiling analysis relative to control. The class given is cell-based.

Chain of Putative phosphatidylinositol 4-kinase alpha-like protein P2 (Homo sapiens) (A4QPH2 whole entry): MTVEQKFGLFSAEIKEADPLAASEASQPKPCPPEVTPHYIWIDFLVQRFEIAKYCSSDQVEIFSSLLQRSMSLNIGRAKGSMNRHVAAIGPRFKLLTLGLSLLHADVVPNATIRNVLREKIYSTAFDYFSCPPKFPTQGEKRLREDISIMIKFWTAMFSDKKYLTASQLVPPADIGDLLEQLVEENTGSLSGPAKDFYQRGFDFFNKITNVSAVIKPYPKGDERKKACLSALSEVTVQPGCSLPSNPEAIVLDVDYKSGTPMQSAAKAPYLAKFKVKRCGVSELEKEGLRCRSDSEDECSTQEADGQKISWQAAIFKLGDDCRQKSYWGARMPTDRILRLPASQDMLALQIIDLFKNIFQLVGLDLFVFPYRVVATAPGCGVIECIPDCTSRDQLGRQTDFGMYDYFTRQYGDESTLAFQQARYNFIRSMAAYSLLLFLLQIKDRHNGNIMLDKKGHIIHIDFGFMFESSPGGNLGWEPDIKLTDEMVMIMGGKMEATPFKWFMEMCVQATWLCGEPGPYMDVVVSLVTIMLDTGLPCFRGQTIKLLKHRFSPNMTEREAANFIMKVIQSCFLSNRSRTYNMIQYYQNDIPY

Usually inhibition stands for the drop in the measured response relative to a control, in per cent. As a reminder, the residual activity is what remains of the control signal, in per cent. Lower therefore signals little activity left. As to `CCN1CCN(Cc2ccc(NC(=O)c3ccc(C)c(/C=C/c4cnc5[nH]ccc5c4OC)c3)cc2C(F)(F)F)CC1`, the inhibition in assay [1] was 1.4%; in assay [2] it was 100%; in assay [3] it was -8%. Moreover, the residual activity in assay [4] is 100%.

In the case of `CCN1CCN(Cc2ccc(NC(=O)c3ccc(C)c(Oc4ccnc5[nH]ccc45)c3)cc2C(F)(F)F)CC1`, the inhibition in assay [5] turned out to be 2.7%.

With `CNc1cc(Oc2cc(C(=O)Nc3cc(N4CCN(C)CC4)cc(C(F)(F)F)c3)ccc2C)ncn1`, the inhibition in assay [6] was -1.1%; in assay [7] it was -2.2%; in assay [8], 0.4%.

The values above are taken from ChEMBL document CHEMBL5696442, “Discovery of type II inhibitors of TGFβ-activated kinase 1 (TAK1) and mitogen-activated protein kinase kinase kinase kinase 2 (MAP4K2)” (J Med Chem, 2015).
